One may read the inhibition as the change of the read-out against control, counted positive when it falls. Lower therefore signals a weak effect. The term IC50 denotes the concentration that gives 50% inhibition.

Assay [1] concerns the target T1, NAD-dependent protein deacetylase sirtuin-2 (Homo sapiens) (UniProt Q8IXJ6).
T1 sequence (whole entry): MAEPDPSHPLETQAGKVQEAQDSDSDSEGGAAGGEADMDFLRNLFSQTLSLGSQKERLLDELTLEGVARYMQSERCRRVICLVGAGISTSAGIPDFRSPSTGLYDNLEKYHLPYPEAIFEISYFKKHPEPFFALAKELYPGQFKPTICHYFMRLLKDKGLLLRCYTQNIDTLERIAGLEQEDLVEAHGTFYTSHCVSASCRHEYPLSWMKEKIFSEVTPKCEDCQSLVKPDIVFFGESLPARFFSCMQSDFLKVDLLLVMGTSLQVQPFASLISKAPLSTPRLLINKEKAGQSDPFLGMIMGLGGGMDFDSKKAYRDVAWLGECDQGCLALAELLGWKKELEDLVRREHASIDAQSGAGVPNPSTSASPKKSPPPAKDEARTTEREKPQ
Put plainly: Inhibition of SIRT2 at 200 uM.

Assay [2] addresses T2, NAD-dependent protein deacetylase sirtuin-2 (Homo sapiens, UniProt Q8IXJ6).
T2 sequence (Q8IXJ6 whole entry): T1 sequence (whole entry)
Put plainly: Inhibition of SIRT2.

As to `Oc1cccc(CNc2ccc(NCc3cccc(O)c3)cc2)c1`, the inhibition in assay [1] is 8%.

Turning to `Oc1ccc(/C=N/c2ccc(/N=C/c3ccc(O)c(O)c3)cc2)cc1O`, the inhibition in assay [1] came out at 13%.

`Oc1ccc(CNc2ccc(NCc3ccc(O)cc3)cc2)cc1` gave an inhibition in assay [1] of 14%.

In assay [1], `Oc1cccc(/C=N/c2ccc(/N=C/c3cccc(O)c3)cc2)c1` yielded an inhibition of 12%.

In the case of `Oc1ccccc1/C=N/c1ccc(/N=C/c2ccccc2O)c2ccccc12`, the inhibition in assay [1] was 38%.

Regarding `COc1cccc(/C=N/c2ccc(/N=C/c3cccc(OC)c3)c3ccccc23)c1`, in assay [1], the inhibition came to 20%.

In assay [1], `Oc1ccccc1CNc1ccc(NCc2ccccc2O)cc1` gave an inhibition of 27%.

In assay [2], `Oc1ccc(/C=N/c2ccc(/N=C/c3ccc(O)cc3)c3ccccc23)cc1` yielded an IC50 of 137 µM. Besides, in assay [1], the inhibition was 64%.

For `C(=N\c1ccc(/N=C/c2ccccc2)cc1)/c1ccccc1`, the inhibition in assay [1] is 35%.

`c1ccc(CNc2ccc(NCc3ccccc3)cc2)cc1`: the inhibition in assay [1] was 21%.

Compound `C(=N\c1ccc(/N=C/c2ccccc2)c2ccccc12)/c1ccccc1` displayed an inhibition in assay [1] of 18%.

Take `COc1ccccc1/C=N/c1ccc(/N=C/c2ccccc2OC)c2ccccc12`: the inhibition in assay [1] came out at 34%.

For `Oc1ccccc1/C=N/c1ccc(/N=C/c2ccccc2O)cc1`, the IC50 in assay [2] was 58.4 µM. The inhibition in assay [1] is 56%.

For `COc1ccccc1/C=N/c1ccc(/N=C/c2ccccc2OC)cc1`, the inhibition in assay [1] turned out to be 13%.

Compound `Oc1cccc(/C=N/c2ccc(/N=C/c3cccc(O)c3)c3ccccc23)c1` displayed an IC50 in assay [2] of 196 µM. In assay [1], this compound gave an inhibition of 53%.

Compound `COc1ccc(/C=N/c2ccc(/N=C/c3ccc(OC)cc3)c3ccccc23)cc1` displayed an inhibition in assay [1] of 17%.

The compound `COc1cccc(/C=N/c2ccc(/N=C/c3cccc(OC)c3)cc2)c1` gave an inhibition in assay [1] of 20%.

As for `Oc1ccc(/C=N/c2ccc(/N=C/c3ccc(O)cc3)cc2)cc1`, the inhibition in assay [1] was determined as 22%.

Values taken from ChEMBL document CHEMBL1138228, “N,N'-Bisbenzylidenebenzene-1,4-diamines and N,N'-Bisbenzylidenenaphthalene-1,4-diamines as Sirtuin Type 2 (SIRT2) Inhibitors” (J Med Chem, 2006).
